Here are results for one compound from patent US12291502B2, “Topoisomerase II-alpha inhibitors and methods of treating cancer using the same” (The Regents of the University of Colorado, priority 2019, dated 2025).

“Also recorded” adds a separate entry of the source.

The test system of one experiment is SW620 tumor organoids. In words: 3D invasion assay. The experiment is classed as cell-based. The settings on record: SW620 tumor organoids treated 72 hours, viable cells incubated further 72 hours. The protocol: 3D Invasion Assay. SW620 cells were transduced with NucLight®-Red virus (Essen BioSciences, MI) and selected with Zeocin (200 μg/mL). Transduced cells were cultured in RPMI-1640 media supplemented with 5% FBS and allowed to grow in a […] until ˜80% confluent. Afterwards, cells were plated in a CellCarrier Spheroid Ultra-Low Attachment 96-well plate (PerkinElmer, MA) at 5,000 cells/well in 2% Matrigel (Corning, NY) and allowed to grow for 72 hours. Cells were then treated with 10 μM of analogs […] and cultured for an additional 72 hours. Organoids were then collected, half a 96-well plate per treatment condition, spun down at 500 g, washed with PBS, and dissociated with 500 μL of Cultrex® Organoid Harvesting Solution (Trevigen, MD) for 30 min in ice with moderate mixing. Single cells were then spun down at 500 g, the supernatant was discarded, cells were washed with PBS, re-centrifuged, and resuspended in RPMI-1640 media supplemented with 0.5% FBS. Live cells were counted and then plated in an Incucyte® ClearView 96-well cell migration plate (Essen BioSciences, MI) in a 1:1 ratio of Matrigel (Corning, NY) and RPMI-1640 media supplemented with 0.5% FBS and 1% penicillin/streptomycin at 5,000 cells/well. […] Cell invasion was monitored using the Incucyte® ZOOM imaging system (Essen BioSciences, MI) for bottom fluorescence of invading cells per manufacturer's recommendations. […]

The next experiment concerns SW620 cells. The experiment in a line: Clonogenic assay (24 h pretreatment of cells). Conditions: SW620 cells pretreated 24 hours, colonies over 7 days vs DMSO. The experiment is classed as cell-based. The protocol: Clonogenic assay. SW620 cells were plated to allow for 70% confluency within 24 hours. Analogs 3, 7, and vehicle (DMSO) were then added to cells for 24 hours as pretreatment. A total of 1000 viable cells per well were plated into a six-well plate and medium was changed 2× per week. […] The fixed colonies were stained with 0.5% (w/v) crystal violet in 25% (v/v) methanol solution for 2 hours at room temperature. The stain was rinsed off with water and the plate was air dried at room temperature. Digital pictures were taken, and the images were saved in greyscale (8-bit). Images were adjusted for threshold with imaged software (Bethesda, MD, USA), the area of analysis was circled, and particles were analyzed by size (100-2000) and circularity (0.5-1).
After characterizing 3 and 7 as TOP2A ATP-competitive inhibitors, these compounds were next tested for their ability to inhibit TOP2A-dependent TCF-transcription using the well characterized TOPflash (TOP) luminescent reporter, which was used to generate a stably transduced SW620-TOP reporter cells as described previously (Zhou, et al., Oncogene 2016, 35:4990-9). These cells were used to generate single 3D tumor organoids (700 μm in diameter) uniformly arrayed in 96-well plates, which mimic aspects of tumor function observed in vivo. […]

For the compound `CC(=O)Nc1ccc2c(-c3cc(F)ccc3O)ccnc2c1O` [Analog 7], in the experiment with SW620 tumor organoids, the “invasive potential, in words” value is “inhibit the invasive potential”. Moreover, the “clonogenic colony formation, in words” value in the experiment with SW620 cells was “sufficient to inhibit colony formation; also recorded: significantly inhibit clonogenic colony formation”.
